Reference: patent US20080107603A1, “Neuroprotectant methods, compositions, and screening methods thereof” (priority 2002, published 2008)
Read-outs that look alike come from different tables or passages of the source.

What was measured:
[1] = Cat; cited from earlier work
[2] = tested on: tyrosine hydroxylase positive cells (TH+ cells) in the substantia nigra; assay: 6-OHDA lesion rat model, TH+ cells in the substantia nigra; format: in vivo, Sprague-Dawley rats
Method: Male Sprague-Dawley rats with starting weights 225±25 g, were housed in groups of 3 with free access to food and water, under controlled temperature (21° C.±1° C.) and a 12 hour light/dark cycle (light on 07.00 hrs). All scientific procedures were carried out with the approval of the Home Office, U.K. Rats were administered, by gavage, 70 mg/kg of ergothioneine or vehicle (sterile distilled water) daily for 4 days (n=6 per group). On the 4th day, 1 hr after L-ergothioneine or vehicle administration, rats were anaesthetized with small animal Immobilon® (0.04 ml/rat, i.m.), and 6-OHDA (5 μg dissolved in 4 μl of 0.1% ascorbic acid/saline solution) was injected onto median forebrain bundle (stereotactic co-ordinates: 2.2 mm anterior, +1.5 lateral from bregma and −7.9 ventral to dura with ear bars 5 mm below incisor bars (Datla et al. (2001) Neuroreport 12:3871, which reference is herein specifically incorporated by reference in its entirety). One week after 6-OHDA lesioning, rats were killed by cervical dislocation and the brains were dissected out immediately. A coronal section was made at the level of hypothalamus and fore brain, and hind brain parts were separated. Hind-brain was fixed for 7 days in 4% paraformaldehyde, then cryo-protected with 30% sucrose solution for 2-3 days and used for tyrosine hydroxylase (TH) immuno-staining as described by Datla et al. (2001) supra. Briefly, TH was immuno-stained by incubating the 20 μm fixed coronal free-floating sections with polyclonal rabbit anti-TH (1:3000, Chemicon, U.K.) followed by biotinylated anti-rabbit IgG and avidin/biotin complex (Vector Lab, U.K.). The TH immuno-complex was then visualized by diaminobenzidine (DAB) and H2O2. Images of TH positive cells (TH+ cells) were captured by a Xillix CCD digital camera and counted automatically (Image Proplus, Datacell, U.K.). The number of TH+ cells in the substantia nigra on the control side was compared with the lesioned side by averaging the cells in 5 different levels (Datla et al. (2001) supra). […]

PC12 cells [3] = assay: LDH release assay, Aβ25-35-treated PC12 cells; format: cell-based, Rat; conditions: 25 μM Aβ25-35-treated PC12 cells
Method: PC12 cells were maintained in DMEM supplemented with 10% heat-inactivated horse serum and 5% fetal bovine serum at 37° C. in a humidified atmosphere of 10% CO2/90% air. All cells were cultured in poly-D-lysine coated culture dishes. The medium was changed every other day, and cells were plated at an appropriate density according to each experimental scale. After 24 h subculture, cells were switched to serum-free N-2 defined medium for treatment. For determination of cell viability, PC12 cells were initially plated at a density of 4×10^4 cells/300 μl in 48-well plates, and the cell viability was determined by the conventional MTT reduction and the lactate dehydrogenase (LDH) release assay as described below.
This assay measures the leakage of the soluble cytoplasmic LDH enzyme into the extracellular medium due to cell lysis. PC12 cells were plated at the same density as for the MTT assay described above. The amount of lactate was measured by monitoring the oxidation of L-lactic acid by NAD^+ in the presence of LDH to pyruvate. The culture media were transferred to 96-well plate and incubated with 1 mg/ml β-NAD^+ in pyruvate substrate solution at 37° C. for 30 min. […] The changes in absorbance were determined at 450 nm using a spectrophotometric microplate reader.

[4] = Rabbit; cited from earlier work
[5] = Guinea Pig; cited from earlier work
PC12 cells [6] = assay: Cell death induced by the NO releasing compound SNP (MTT); format: cell-based, Rat; conditions: MTT reduction assay
Method: The MTT assay is a sensitive measurement of the normal metabolic status of cells, particularly that of mitochondria, which reflects early cellular redox changes. After incubation, cells were treated with the MTT solution (final concentration, 1 mg/ml) for 2 h. The dark blue formazan crystals formed in intact cells were dissolved in DMSO, and absorbance at 570 nm was measured with a microplate reader. Results were expressed as the percentage (%) of MTT reduction, assuming that the absorbance of control cells was 100%.

p65 = assay: Immunocytochemistry, nuclear translocation of p65; format: cell-based, Rat; conditions: Aβ25-35 for 1 h
PARP = assay: Western blot, Aβ25-35-induced cleavage of PARP; format: cell-based, Rat; conditions: 25 μM Aβ25-35, 36 h
Method: After treatment, cells (1×10^7 cells/7 ml in 100φ dish) were collected and washed with PBS. After centrifugation, cell lysis was carried out at 4° C. by vigorous shaking for 15 min in RIPA buffer (150 mM NaCl, 1% NP-40, 0.5% sodium deoxycholate, 0.1% SDS, 50 mM Tris-HCl (pH 7.4), 50 mM glycerphosphate, 20 mM NaF, 20 mM EGTA, 1 mM DTT, 1 mM Na3VO4 and protease inhibitors). After centrifugation at 15,000 rpm for 15 min, supernatant was separated and stored at −70° C. until use. The protein concentration was determined by using the bicinchrinic acid (BCA) protein assay kit (Pierce, Rockford, Ill., USA). After addition of sample loading buffer, protein samples were electrophoresed on a 12.5% SDS-polyacrylamide gel. Proteins were transferred to polyvinylidene difluoride blots at 300 mA for 3 h. The blots were blocked for 1 h at room temperature in fresh blocking buffer (0.1% Tween-20 in Tris-buffered saline, pH 7.4 containing 5% non-fat dried milk). Dilutions (1:1000) of primary anti-poly(ADP-ribose)polymerase (PARP), anti-Bcl-XL and anti-Bax antibodies were made in PBS with 3% non-fat dry milk. Following three washes with PBST (PBS and 0.1% Tween-20), the blots were incubated with horseradish peroxidase-conjugated secondary antibodies in PBS with 3% non-fat dry milk for 1 h at room temperature. […]

C[N+](C)(C)[C@@H](Cc1c[nH]c(=S)[nH]1)C(=O)[O-] [L-ergothioneine, 2-mercaptohistidine trimethylbetaine]
L-Ergothioneine Concentration (mg/100 ml blood) [1]: 0.5-2 mg/100 ml blood
improvement in terms of neuroprotection over the controls ([2]; L-ergothioneine vs vehicle treated group): approximately 20%
number of TH+ cells on the control side of the brain ([2]; control (unlesioned) side, vs vehicle group): comparable
reduction in the number of TH+ cells ([2]; lesioned vs control side, 70 mg/kg by gavage, one week after 6-OHDA lesioning): 46%
LDH release (PC12 cells [3]): reduce the LDH release
L-Ergothioneine Concentration (mg/100 ml blood) [4]: 1-10 mg/100 ml blood
L-Ergothioneine Concentration (mg/100 ml blood) [5]: 1-4 mg/100 ml blood
cell death mediated by the NO donor SNP (PC12 cells [6]): failed to attenuate
Aβ25-35-induced nuclear translocation of p65 (p65): inhibitory effect
cleavage of PARP (PARP): inhibited
